In patent US9809593B2, “Use of tetramic acid derivatives as nematicides” (Syngenta Participations AG, priority 2013, dated 2017):

Experiments:
Format in all cases: in vivo
[1] = test system: Meloidogyne incognita (RKNi); assay: Pot trial: foliar spray in cotton against root-knot nematodes; details: for performance in comparison to prior art tetramic acid compound spirotetramat: foliar 100 g/ha
Excerpt: POT TRIALS: Foliar spray in Cotton against nematodes Meloidogyne incognita (RKNi) using
12 1-L Clay pots were used per treatment. Cotton: Fibre Max 966 seeds were planted into pots and allowed to germinate and grow into young plants. The pots were artificially infested with nematodes (RKNi) 2 days after treatment.
APPLICATION: Compounds A and B and comparison Spirotetramat were sprayed as a normal foliar spray with hollow cone nozzles directed onto the plants. The compounds A, B and spirotetramat used were formulated as a suspension concentrate formulation at a dose rate of 100 g/ha. The compounds were diluted to a spray volume of approx […], which was used on the young plants. The treatment was applied when the plants had at least 2 true leaves.
Industry comparison Abamectin as a seed treatment was also included in the trials as a comparison. AVICTA® 500 FS from Syngenta AG was used at a rate of 500 g/L as a flowable concentrate (FS) formulation and applied to the seeds as a slurry to provide a rate of 0.15 mg of active ingredient per seed.
ASSESSMENT: Plants were removed 2 days after foliar spray treatment to assess penetration of the nematode in the roots with a dyeing method. Root galling/cysts were assessed according to standard practice.

[2] = test system: Heterodera schachtii Schmidt (SBCN); assay: Pot trial: seed treatment and foliar spray in sugar beets, tuber weight; details: sugar beet, n = 8-10, harvest after 4 months
Excerpt: POT TRIALS: Seed treatments and Foliar spray in sugar beets (Beta Vulgaris cv Impulse) against root nematodes Heterodera schachtii Schmidt (SBCN) (origin Münster, Germany)
15 7-L pots were used per treatment containing 7-L soil with an organic matter content of 2% (drench soil+sand). Seeds were planted into pot soil 1 cm deep and allowed to germinate and grow into young plants in a polytunnel. During the winter months, the pots were placed in a greenhouse. The pots were artificially infested with nematodes (SBCN) when preparing the soil for each pot and just before planting.
(§1) APPLICATION: Compounds A and comparison Spirotetramat were sprayed as a normal foliar spray with hollow cone nozzles directed onto the plants. The compounds A and Spirotetramat used were formulated as a suspension concentrate formulation at a dose rate of 100 g/ha. The first foliar spray was applied 14 days after sowing. A second foliar spray was carried out 3 weeks later.
Abamectin was used as a seed treatment. AVICTA® 500 FS from Syngenta AG was used at a rate of 500 g/L as a flowable concentrate (FS) formulation and applied to the seeds as a slurry to provide a rate of 0.6 mg of active ingredient per seed.
ASSESSMENT: Sugar beet plants were harvested after 4 months according to the prevailing temperatures and weather conditions. Sugar beet tuber weights were assessed according to standard practice.

[3] = test system: Heterodera schachtii Schmidt (SBCN); assay: Pot trial: seed treatment and foliar spray in sugar beets, cysts per root system; details: sugar beet, 25 days after inoculation
Description: POT TRIALS: Seed treatments and Foliar spray in sugar beets (Beta Vulgaris cv Impulse) against root nematodes Heterodera schachtii Schmidt (SBCN)
8×350 ml pots were used per treatment containing 350 ml soil (70% drench soil and 30% sand). 1 Seed per pot were planted into pot soil 0.5 cm deep and allowed to germinate and grow into young plants. Plants were kept under constant conditions of 25° C. during the day and 23° C. during the night with a humidity of 50-60% with 14 hour light periods. The pots were artificially infested with nematodes (SBCN) 7 days after sowing. For inoculation, 3 holes are drilled into the soil and 2 ml suspension of the nematodes per hole are applied.
as §1, with “Compounds B” for “Compounds A”, “compounds B” for “compounds A”, “after sowing (i.e. 7 days after inoculation).” for “after sowing.”, “out 21 days after sowing (i.e. 14 days after inoculation).” for “out 3 weeks later.”
Abamectin was used as a seed treatment. AVICTA® 400 FS from Syngenta AG was used at a rate of 400 g/L as a flowable concentrate (FS) formulation and applied to the seeds as a slurry to provide a rate of 0.6 mg and 1 mg of active ingredient per seed.
ASSESSMENT: Sugar beet plants were harvested 25 days after inoculation. Sugar beet root and shoot weights were assessed according to standard practice. Number of cysts per root system and as a function of root weight were assessed.

[4] = foliar 100 g/ha at BBCH 14, artificial infestation 2 days after foliar spray
[5] = foliar 100 g/ha, first application +14 days after sowing
[6] = seed treatment 0.15 mg/seed at BBCH 00, artificial infestation at crop stage BBCH 14

Compound | performance in comparison to prior art tetramic acid compound spirotetramat [1] | % root length in cm compared to check (= 100%) [1, 4] | Number of root galls per plant [1, 4] | Mean tuber weight relative to inoculated check (%), Observed % [2, 5] | % root length in cm compared to check (= 100%) [1, 6] | Number of root galls per plant [1, 6] | Mean tuber weight relative to inoculated check (%), Observed % ([2]; seed treatment 0.6 mg/seed at sowing) | Efficacy in % of cyst nematodes per root system ([3]; Abamectin 0.6 mg/seed seed treatment) | Efficacy in % of cyst nematodes per root system ([3]; Abamectin 1 mg/seed seed treatment) | Efficacy in % of cyst nematodes per root system ([3]; Compound B 100 g/ha foliar)
CCOC(=O)OC1=C(c2c(C)cc(Cl)cc2C)C(=O)NC12CCN(OC)CC2 [Compound A] | outperformed spirotetramat | 204% | 1 | 17.0% |  |  |  |  |  | 
Abamectin |  |  |  |  | 211% | 0.33 | 6.4% | 42% | 60% | 
CCOC(=O)OC1=C(c2c(C)cc(Cl)cc2C)C(=O)N(C)C12CCN(OC)CC2 [Compound B] | outperformed spirotetramat | 213% | 0.33 |  |  |  |  |  |  | 12%
CCOC(=O)OC1=C(c2cc(C)ccc2C)C(=O)N[C@]12CC[C@@H](OC)CC2 [Spirotetramat] |  | 100% | 5.83 | 30.0% |  |  |  |  |  | 
